Assay results: US20230339866A1, “Quinazoline compounds and the use thereof in the treatment of cancer” (TROBIO THERAPEUTICS PTY LTD, priority 2020, published 2023)

Columns and labels:
Assay type in all cases: cell-based
A549 (NSCLC) = test: Anti-proliferative activity (Cell-Titre luminescence) against A549 non-small cell lung cancer cells; conditions: 72 h exposure, Cell-Titre luminescent reagent
Outline: (§1)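 EC50 derived by nonlinear variable-slope sigmoidal fit of luminescent Cell-Titre viability, normalised to vehicle control. Compound (0.1–30 μM, six concentrations) applied for 72 h after 24 h attachment at 37 °C, 5% CO2.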

[1] = test system: SK-N-SH neuroblastoma cells; test: Anti-proliferative activity (MTS assay) against SK-N-SH neuroblastoma cells
Experimental: The ability of compounds of the disclosure to inhibit the proliferation of SK-N-SH neuroblastoma cells was also assessed. […] Cell viability was normalised to control (vehicle alone) and dose response curves and IC50 values (Table 4) were determined using Graph Pad Prism 6.

A2780 (ovarian) = test: Anti-proliferative activity (Cell-Titre luminescence) against A2780 ovarian cancer cells; conditions: 72 h exposure, Cell-Titre luminescent reagent
Outline: as §1

Row | Compound | IC50 (A549 (NSCLC); Homo sapiens, A549, 72 h) [µM] | IC50 ([1]; Homo sapiens, SK-N-SH, 72 h) [µM] | IC50 (A2780 (ovarian); Homo sapiens, A2780, 72 h) [µM] | IC50 (A549 (NSCLC)) [µM] | IC50 ([1]; 72 hours) [µM] | IC50 (A2780 (ovarian)) [µM]
1 | CN(C)CCNc1nc(-c2ccc[nH]2)nc2ccccc12 [Compound 97, N^1-(2-(1H-pyrrol-2-yl)quinazolin-4-yl)-N^2,N^2-dimethylethane-1,2-diamine] | 4.99 | 8.54 | 3.07 |  |  | 
2 | Cc1cccc(CCNc2nc(NCCN3CCN(C)CC3)c3ccccc3n2)c1 [Compound 124, N^2-(3-methylphenethyl)-N^4-(2-(4-methylpiperazin-1-yl)ethyl)quinazoline-2,4-diamine] | 2.25 | 0.68 | 2.74 |  |  | 
3 | Fc1cccc(Nc2nc(NCCc3c[nH]cn3)c3ccccc3n2)c1 [Compound 83, N^4-(2-(1H-imidazol-4-yl)ethyl)-N^2-(3-fluorophenyl)quinazoline-2,4-diamine] |  |  |  | 9.16 | 3.88 | 2.2
4 | CC(C)C(CNc1nc(-c2cc[nH]c2)nc2ccccc12)N1CCN(C)CC1 (stereo not drawn) [Compound 5, N-(3-methyl-2-(4-methylpiperazin-1-yl)butyl)-2-(1H-pyrrol-3-yl)quinazolin-4-amine] | 2.74 | 1.87 | 0.901 |  |  | 
5 | OCCNc1nc(NCc2ccccc2)nc2ccccc12 [Compound 31, 2-((2-(benzylamino)quinazolin-4-yl)amino)ethan-1-ol] | 3.61 | 14.3 | 1.21 |  |  | 
6 | CN1CCN(CCNc2nc(Nc3cccc(F)c3)nc3ccccc23)CC1 [Compound 56, N^2-(3-fluorophenyl)-N^4-(2-(4-methylpiperazin-1-yl)ethyl)quinazoline-2,4-diamine] | 8.5 | 3.68 | 1.01 |  |  | 
7 | CN1CCN(CCNc2nc(Nc3cccc(C(F)(F)F)c3)nc3ccccc23)CC1 [Compound 41, N^4-(2-(4-methylpiperazin-1-yl)ethyl)-N^2-(3-(trifluoromethyl)phenyl)quinazoline-2,4-diamine] | 3.06 | 2.22 | 0.855 |  |  | 
8 | CN(C)CCNc1nc(Nc2cccc(C(F)(F)F)c2)nc2ccccc12 [Compound 60, N^4-(2-(dimethylamino)ethyl)-N^2-(3-(trifluoromethyl)phenyl)quinazoline-2,4-diamine] | 2.74 | 2.61 | 2.21 |  |  | 
9 | COc1ccc(Nc2nc(NCCc3c[nH]cn3)c3ccccc3n2)cc1 [Compound 80, N^4-(2-(1H-imidazol-4-yl)ethyl)-N^2-(4-methoxyphenyl)quinazoline-2,4-diamine] | 4 | 2.87 | 3.33 |  |  | 
10 | COc1ccc(CCNc2nc(NCCc3c[nH]cn3)c3ccccc3n2)cc1 [Compound 85, N^4-(2-(1H-imidazol-4-yl)ethyl)-N^2-(4-methoxyphenethyl)quinazoline-2,4-diamine] | 6.81 | 4.28 | 1.74 |  |  | 
11 | CN(C)CCCNc1nc(NCCc2ccc(F)cc2)nc2ccccc12 [Compound 78, N^4-(3-(dimethylamino)propyl)-N^2-(4-fluorophenethyl)quinazoline-2,4-diamine] | 2.33 | 1.86 | 2.95 |  |  | 
12 | CN(C)CCCNc1nc(NCCc2cccc(F)c2)nc2ccccc12 [Compound 77, N^4-(3-(dimethylamino)propyl)-N^2-(3-fluorophenethyl)quinazoline-2,4-diamine] | 3.04 | 2.36 | 3.49 |  |  | 
13 | Fc1ccc(CCNc2nc(NCCc3c[nH]cn3)c3ccccc3n2)cc1 [Compound 88, N^4-(2-(1H-imidazol-4-yl)ethyl)-N^2-(4-fluorophenethyl)quinazoline-2,4-diamine] | 3.42 | 2.2 | 1.74 |  |  | 
14 | CCc1ccc(CCNc2nc(NCCCO)c3ccccc3n2)cc1 [Compound 93, 3-((2-((4-ethylphenethyl)amino)quinazolin-4-yl)amino)propan-1-ol] | 10.1 | 4.43 | 2.65 |  |  | 
15 | CN(C)CCCNc1nc(Nc2cccc(C(F)(F)F)c2)nc2ccccc12 [Compound 69, N^4-(3-(dimethylamino)propyl)-N^2-(3-(trifluoromethyl)phenyl)quinazoline-2,4-diamine] | 2.74 | 2.39 | 0.797 |  |  | 
16 | FC(F)(F)c1cccc(CCNc2nc(NCCN3CCNCC3)c3ccccc3n2)c1 [Compound 112, N^4-(2-(piperazin-1-yl)ethyl)-N^2-(3-(trifluoromethyl)phenethyl)quinazoline-2,4-diamine] | 0.938 | 0.46 | 0.767 |  |  | 

Row | Compound | IC50 (A549 (NSCLC); Homo sapiens, A549, 72 h) [µM] | IC50 ([1]; Homo sapiens, SK-N-SH, 72 h) [µM] | IC50 (A2780 (ovarian); Homo sapiens, A2780, 72 h) [µM] | IC50 (A549 (NSCLC)) [µM] | IC50 ([1]; 72 hours) [µM] | IC50 (A2780 (ovarian)) [µM]
17 | CN1CCN(CCNc2nc(NCCc3cccc(C(F)(F)F)c3)nc3ccccc23)CC1 [Compound 51, N^4-(2-(4-methylpiperazin-1-yl)ethyl)-N^2-(3-(trifluoromethyl)phenethyl)quinazoline-2,4-diamine] | 3.07 | 1.4 | 1.39 |  |  | 
18 | CN1CCN(CCNc2nc(NCCc3ccc(C(C)(C)C)cc3)nc3ccccc23)CC1 [Compound 129, N^2-(4-(tert-butyl)phenethyl)-N^4-(2-(4-methylpiperazin-1-yl)ethyl)quinazoline-2,4-diamine] | 1 | 0.42 | 0.316 |  |  | 
19 | CN(C)CCNc1nc(-c2cc[nH]c2)nc2ccccc12 [Compound 98, N^1-(2-(1H-pyrrol-3-yl)quinazolin-4-yl)-N^2,N^2-dimethylethane-1,2-diamine] | 5.21 | 3.93 | 1.03 |  |  | 
20 | CCc1ccc(CCNc2nc(NCCc3c[nH]cn3)c3ccccc3n2)cc1 [Compound 86, N^4-(2-(1H-imidazol-4-yl)ethyl)-N^2-(4-ethylphenethyl)quinazoline-2,4-diamine] | 3.23 | 2.17 | 1.07 |  |  | 
21 | CCc1ccc(CCNc2nc(NCCO)c3ccccc3n2)cc1 [Compound 89, 2-((2-((4-ethylphenethyl)amino)quinazolin-4-yl)amino)ethan-1-ol] | 6.1 | 3.48 | 2.73 |  |  | 
22 | CN(C)CCNc1nc(-c2ccsc2)nc2ccccc12 [Compound 96, N^1,N^1-dimethyl-N^2-(2-(thiophen-3-yl)quinazolin-4-yl)ethane-1,2-diamine] | 6.7 | 8.77 | 5.52 |  |  | 
23 | Fc1cccc(Nc2nc(NCCc3c[nH]cn3)c3ccccc3n2)c1 [Compound 82, N^4-(2-(1H-imidazol-4-yl)ethyl)-N^2-(3-fluorophenyl)quinazoline-2,4-diamine] | 7.46 | 4.46 | 1.88 |  |  | 
24 | CC(C)c1ccc(CCNc2nc(NCCN3CCN(C)CC3)c3ccccc3n2)cc1 [Compound 128, N^2-(4-isopropylphenethyl)-N^4-(2-(4-methylpiperazin-1-yl)ethyl)quinazoline-2,4-diamine] | 0.943 | 0.57 | 0.606 |  |  | 
25 | N^4-(2-(dimethylamino)ethyl)-N^2-(3-(trifluoromethyl)phenethyl)quinazoline-2,4-diamine [Compound 64] |  |  |  | 2.87 | 1.45 | 2.38
26 | CN1CCN(CCNc2nc(NCCc3cccc(Cl)c3)nc3ccccc23)CC1 [Compound 125, N^2-(3-chlorophenethyl)-N^4-(2-(4-methylpiperazin-1-yl)ethyl)quinazoline-2,4-diamine] | 1.62 | 0.73 | 0.968 |  |  | 
27 | CCc1ccc(Nc2nc(NCCCN(C)C)c3ccccc3n2)cc1 [Compound 71, N^4-(3-(dimethylamino)propyl)-N^2-(4-ethylphenyl)quinazoline-2,4-diamine] | 7.14 | 2.07 | 2.88 |  |  | 
28 | CCc1ccc(Nc2nc(NCCc3c[nH]cn3)c3ccccc3n2)cc1 [Compound 81, N^4-(2-(1H-imidazol-4-yl)ethyl)-N^2-(4-ethylphenyl)quinazoline-2,4-diamine] | 3.1 | 3.82 | 1.2 |  |  | 
29 | CN(C)CCCNc1nc(NCCc2cccc(C(F)(F)F)c2)nc2ccccc12 [Compound 74, N^4-(3-(dimethylamino)propyl)-N^2-(3-(trifluoromethyl)phenethyl)quinazoline-2,4-diamine] | 1.7 | 1.24 | 1.16 |  |  | 
30 | COc1ccc(CCNc2nc(NCCCN(C)C)c3ccccc3n2)cc1 [Compound 75, N^4-(3-(dimethylamino)propyl)-N^2-(4-methoxyphenethyl)quinazoline-2,4-diamine] | 1.49 | 1.47 | 0.467 |  |  | 
31 | OCCCNc1nc(NCCc2ccc(F)cc2)nc2ccccc12 [Compound 95, 3-((2-((4-fluorophenethyl)amino)quinazolin-4-yl)amino)propan-1-ol] | 1.76 | 2.62 | 2.78 |  |  | 
32 | COc1ccc(CCNc2nc(NCCN3CCN(C)CC3)c3ccccc3n2)cc1 [Compound 54, N^2-(4-methoxyphenethyl)-N^4-(2-(4-methylpiperazin-1-yl)ethyl)quinazoline-2,4-diamine] | 4.65 | 1.15 | 3.8 |  |  | 
